For the assay, the system named is survivin. The assay is described as follows: Human Apoptosis Proteome Profiler array, survivin. The format is cell-based. Particulars: HCT-116, 1 h exposure, 2 × IC50. From the text: To explore in detail the molecular mechanism of apoptosis induction by compounds 3b and 3c, we employed Human Apoptosis Proteome Profiler arrays that allow quantification of apoptosis-related biomarkers (Figure 3C). […] Collectively, it can be concluded that silyl derivative 3b promotes cell death in HCT 116 cells by the alteration of expression levels of survivin and activation of caspase-3.
The Human Apoptosis Array Kit (R&D Systems, Abingdon, UK) was used to determine the levels of expression of apoptosis-related proteins. 2.5 × 10^5 HCT 116 wt cells were seeded on 100 mm dishes (Nunc, ThermoFisher, Waltham, MA, USA) and allowed to attach for 24 h. Then the medium was replaced with tested compounds at a concentration corresponding 2 × IC50 value and the cells were incubated in 37 °C. After 60 min the cells were lysed and the lysates were clarified by centrifugation for 30 min at 14,000× g. The total protein concentration was measured using the Protein Quantification Kit-Rapid (Sigma-Aldrich, Taufkirchen, Germany) according to the manufacturer’s instruction. The next steps followed instructions from the manufacturer of the Human Apoptosis Array Kit. The membranes were then scanned in the G:Box trans illuminator (Syngene, Cambridge, UK) and the protein expression levels were quantified by densitometric analysis using ImageJ software.

Regarding `CC(C)[Si](OC1OC(=O)C(Br)=C1Br)(C(C)C)C(C)C` (stereo not shown) [Compound 3b, 3,4-Dibromo-5-(triisopropylsilyloxy)-furan-2(5H)-one], the survivin expression entry is on record as “down-regulation of survivin”.

These data come from paper PMC8620685, “Effect of Selected Silyl Groups on the Anticancer Activity of 3,4-Dibromo-5-Hydroxy-Furan-2(5H)-One Derivatives” (Pharmaceuticals, 2021).
